Like-named read-outs stand apart in the source and are kept apart here. Each block holds one compound with its values, some of them ahead of it.
Columns and labels:
Assay type in all cases: cell-based
[1] = test system: Pseudomonas aeruginosa NCIB 10421; test: MIC and Fractional Inhibitory Concentration (FIC) in microtitre array
Procedure: The gram negative bacterium, Pseudomonas aeruginosa NCIB 10421 was grown in nutrient broth to stationary phase during 18 hours and contained approximately 10^9 organisms/ml. A 0.1% (v/v) inoculum was used to seed fresh nutrient broth and 100 μl was then added to each well of a microtitre plate, except for the first well which contained 200 μl.
Solutions of zinc acetate (ZnAc) and the 2:1 zinc complex of 3-hydroxy-4-methylthiazol-2(3H)-thione (ZHMT), respectively, were prepared in nutrient broth at twice the final concentration to be used in the microtitre array. A microtitre array was prepared with concentration of zinc acetate and ZHMT from twice the MIC down to zero concentration in a 10×10 array. Since the array contains only 96 wells, the highest and lowest concentration of the zinc acetate and ZHMT were omitted. The dilution of the ZHMT was doubled across the ordinate axis of the array by transferring 100 μl aliquots so that the final volume in each well was 200 μl. The microtitre plate was then incubated for 16 to 24 hours at 37° C. and the presence of bacterial growth assessed visually.
The FIC is defined as the sum of the fractional inhibitory concentration of each component. The FIC of the individual component is the ratio of the concentration of the component in the binary mixture divided by its MIC.

[2] = test system: contaminated matt paint millbase; test: Viable cells in contaminated matt paint millbase; set-up: key to Viable cells after (days) 5 / Viable cells after (days) 7 / Viable cells after (days) 14: C is confluent growth over the surface; − is no visible colonies; + is few visible colonies; ++ is clusters of discreet colonies
Procedure: 25 ml Aliquots of a contaminated matt paint millbase were formulated with the 2:1 zinc complex of 3-hydroxy-4-methylthiazol-2(3H)-thione and zinc acetate as shown in Table 2 below. The number of variable cells was determined by streaking a small portion of each aliquot of millbase onto nutrient agar after 5, 7 and 14 days. The number of cells was determined by visible assessment following incubation for 2 days at 30° C.

mixed bacterial culture = test: Preservation of unpreserved latex, repeated challenge with mixed bacterial culture; set-up: key to Viable bacteria, Third inoculum (days) 5 / Viable bacteria, Third inoculum (days) 7 / Viable bacteria, First inoculum (days) 3 / Viable bacteria, First inoculum (days) 5 / Viable bacteria, First inoculum (days) 7 / Viable bacteria, Second inoculum (days) 3 / Viable bacteria, Second inoculum (days) 5 / Viable bacteria, Second inoculum (days) 7 / Viable bacteria, Third inoculum (days) 3: C is confluent growth over the surface; − is no visible colonies; + is few visible colonies; ++ is clusters of discreet colonies; details: for antimicrobial activity in latex: zinc salt alone, 200 ppm (Table 1)
Procedure: Aliquots (25 parts) of unpreserved latex containing 50% by weight solids of a copolymer of 2-ethylhexylacrylate/acrylic acid at pH 8.5 were formulated with zinc acetate and the 2:1 zinc complex of 3-hydroxy4-methyl thiazol-2(3H)-thione in the amounts shown in Table 1 below. After formulation, each aliquot was stored at 20° C. for 1 week prior to inoculation with a mixed bacterial culture.
The bacterial culture was prepared by culturing the following seven bacteria in nutrient agar for 24 hours at 30° C.
Each of the individual bacterium was prepared at a concentration of 10^8 cells/ml in quarter strength Ringers solution by means of a Thoma counting chamber. The mixed inoculum was prepared by mixing equal volumes of the cultures containing the individual bacterium.
The latex aliquots were repeatedly inoculated at 0, 7 and 14 day intervals with 0.5 ml mixed inoculum (2×10^6 cells/ml) and incubated at 30° C. The number of viable bacteria was determined by streaking a small portion of each aliquot of latex onto nutrient agar after 3, 5 and 7 days followed by visible assessment after incubation for 2 days at 30° C.

mixed inoculum = test: Preservation of styrene-acrylic emulsion paint, challenge with mixed inoculum; set-up: key to Bacterial growth, First Inoculum Days 4 / Bacterial growth, First Inoculum Days 7 / Bacterial growth, Second Inoculum Days 4 / Bacterial growth, Second Inoculum Days 7 / Bacterial growth, Second Inoculum Days 14 / Bacterial growth, Third Inoculum Days 4 / Bacterial growth, Third Inoculum Days 7 / Bacterial growth, Third Inoculum Days 21: − = no growth (no visible colonies); + = light growth (a few visible colonies); ++ = moderate growth (discrete colonies visible, some coalescence); +++ = dense, confluent growth (coalescing colonies visible throughout streak); details: for Bacterial growth, First Inoculum Days 4 / Bacterial growth, First Inoculum Days 7 / Bacterial growth, Second Inoculum Days 4 / Bacterial growth, Second Inoculum Days 7 / Bacterial growth, Second Inoculum Days 14 / Bacterial growth, Third Inoculum Days 4 / Bacterial growth, Third Inoculum Days 7 / Bacterial growth, Third Inoculum Days 21: emulsion paint
Procedure: An inoculum was prepared containing the following micro-organisms:
Each of the individual bacterium was cultured in nutrient agar and incubated at 30° C. for 24 hours followed by suspension in quarter strength Ringers solution by means of a Thoma countering chamber to give 10^8 cells/ml. A mixed inoculum was prepared by combining equal volumes.
An aliquot of the starch containing the ZHMT, and optionally zinc acetate, was inoculated weekly with 0.5 ml of the mixed inoculum on three occasions to give 2×10^6 cells/ml. The aliquots were then incubated at 30° C. and examined for bacterial growth by streaking a small sample onto nutrient agar and incubating at 30° C. for 2 days prior to visual examination.
Aliquots of a styrene-acrylic emulsion paint were treated with the 2:1 zinc complex of 3-hydroxy-4-methylthiazol-2(3H)-thione (ZHMT) optionally containing zinc acetate (ZnAc) or zinc oxide (ZnO). These aliquots were challenged with the mixed inoculum described in Example 5 and examined for bacterial growth as described in this previous example.

[3] = ZnAc replaced by the same weight of the metal salt
[4] = latex, Amount 200 ppm of each component present
[5] = Amount 25 ppm of each component present
[6] = Amount 50 ppm of each component present
[7] = latex, Amount 25 ppm of each component present
[8] = latex, Amount 50 ppm of each component present
[9] = latex, Amount 100 ppm of each component present

Compound: [O-]n1ccccc1=S.[O-]n1ccccc1=S.[Zn+2] [2:1 zinc complex of 1-hydroxypyridine-2-thione]
synergy with ZnAc ([1]; ZHMT replaced by this complex): no synergy

Compound: [Cl][Cu][Cl] [cupric chloride]
synergy with ZHMT [1, 3]: no synergy

Compound: CC(=O)[O-].CC(=O)[O-].[Zn+2] [ZA, zinc acetate]
FIC [1]: 1
Minimum Inhibitory Concentrations (MIC) [1]: 250 ppm
effect on activity of the metal complex [2]: increases the bacterial activity of the metal complex
Viable bacteria, First inoculum (days) 3 (mixed bacterial culture; [4]): −
Viable bacteria, First inoculum (days) 5 (mixed bacterial culture; [4]): −
Viable bacteria, First inoculum (days) 7 (mixed bacterial culture; [4]): −
Viable bacteria, Second inoculum (days) 3 (mixed bacterial culture; [4]): ++
Viable bacteria, Second inoculum (days) 5 (mixed bacterial culture; [4]): ++
Viable bacteria, Second inoculum (days) 7 (mixed bacterial culture; [4]): ++
Viable bacteria, Third inoculum (days) 3 (mixed bacterial culture; [4]): ++
Viable bacteria, Third inoculum (days) 5 (mixed bacterial culture; [4]): ++
Viable bacteria, Third inoculum (days) 7 (mixed bacterial culture; [4]): ++
antimicrobial activity in latex (mixed bacterial culture): no antimicrobial activity

Compound: [Cl-].[Cl-].[Mg+2] [magnesium chloride]
synergy with ZHMT [1]: no synergy

Compound: [Cl][Fe]([Cl])[Cl] [ferric chloride]
effect on the ZHMT ([1]; ZnAc replaced with half the weight of the metal salt): antagonistic effect

Compound: manganese chloride
synergy with ZHMT [1, 3]: no synergy

Compound: [Cl-].[Cl-].[Zn+2] [ZC, zinc chloride]
Viable bacteria, First inoculum (days) 3 (mixed bacterial culture; [4]): +
Viable bacteria, First inoculum (days) 5 (mixed bacterial culture; [4]): −
Viable bacteria, First inoculum (days) 7 (mixed bacterial culture; [4]): −
Viable bacteria, Second inoculum (days) 3 (mixed bacterial culture; [4]): ++
Viable bacteria, Second inoculum (days) 5 (mixed bacterial culture; [4]): ++
Viable bacteria, Second inoculum (days) 7 (mixed bacterial culture; [4]): ++
Viable bacteria, Third inoculum (days) 3 (mixed bacterial culture; [4]): C
Viable bacteria, Third inoculum (days) 5 (mixed bacterial culture; [4]): C
Viable bacteria, Third inoculum (days) 7 (mixed bacterial culture; [4]): C
antimicrobial activity in latex (mixed bacterial culture): no antimicrobial activity

Minimum Inhibitory Concentrations (MIC) ([1]; nutrient broth, 16 to 24 hours at 37° C., single component): 32 ppm
Compound: Cc1csc(=S)n1[O-].Cc1csc(=S)n1[O-].[Zn+2] [ZHMT, 2:1 zinc complex of 3-hydroxy-4-methylthiazol-2(3H)-thione]
Bacterial growth, First Inoculum Days 4 (mixed inoculum; Conc. 10 (ppm ZHMT)): −
Bacterial growth, First Inoculum Days 7 (mixed inoculum; Conc. 10 (ppm ZHMT)): −
Bacterial growth, Second Inoculum Days 4 (mixed inoculum; Conc. 10 (ppm ZHMT)): +++
Bacterial growth, Second Inoculum Days 7 (mixed inoculum; Conc. 10 (ppm ZHMT)): +++
Bacterial growth, Second Inoculum Days 14 (mixed inoculum; Conc. 10 (ppm ZHMT)): +++
Bacterial growth, Third Inoculum Days 4 (mixed inoculum; Conc. 10 (ppm ZHMT)): +++
Bacterial growth, Third Inoculum Days 7 (mixed inoculum; Conc. 10 (ppm ZHMT)): +++
Bacterial growth, Third Inoculum Days 21 (mixed inoculum; Conc. 10 (ppm ZHMT)): +++
Bacterial growth, First Inoculum Days 4 (mixed inoculum; Conc. 25 (ppm ZHMT)): −
Bacterial growth, First Inoculum Days 7 (mixed inoculum; Conc. 25 (ppm ZHMT)): −
Bacterial growth, Second Inoculum Days 4 (mixed inoculum; Conc. 25 (ppm ZHMT)): +++
Bacterial growth, Second Inoculum Days 7 (mixed inoculum; Conc. 25 (ppm ZHMT)): +++
Bacterial growth, Second Inoculum Days 14 (mixed inoculum; Conc. 25 (ppm ZHMT)): +++
Bacterial growth, Third Inoculum Days 4 (mixed inoculum; Conc. 25 (ppm ZHMT)): +++
Bacterial growth, Third Inoculum Days 7 (mixed inoculum; Conc. 25 (ppm ZHMT)): +++
Bacterial growth, Third Inoculum Days 21 (mixed inoculum; Conc. 25 (ppm ZHMT)): +++
Bacterial growth, First Inoculum Days 4 (mixed inoculum; Conc. 50 (ppm ZHMT)): −
Bacterial growth, First Inoculum Days 7 (mixed inoculum; Conc. 50 (ppm ZHMT)): −
Bacterial growth, Second Inoculum Days 4 (mixed inoculum; Conc. 50 (ppm ZHMT)): +++
Bacterial growth, Second Inoculum Days 7 (mixed inoculum; Conc. 50 (ppm ZHMT)): +++
Bacterial growth, Second Inoculum Days 14 (mixed inoculum; Conc. 50 (ppm ZHMT)): +++
Bacterial growth, Third Inoculum Days 4 (mixed inoculum; Conc. 50 (ppm ZHMT)): +++
Bacterial growth, Third Inoculum Days 7 (mixed inoculum; Conc. 50 (ppm ZHMT)): +++
Bacterial growth, Third Inoculum Days 21 (mixed inoculum; Conc. 50 (ppm ZHMT)): +++
Bacterial growth, First Inoculum Days 4 (mixed inoculum; Conc. 100 (ppm ZHMT)): −
Bacterial growth, First Inoculum Days 7 (mixed inoculum; Conc. 100 (ppm ZHMT)): −
Bacterial growth, Second Inoculum Days 4 (mixed inoculum; Conc. 100 (ppm ZHMT)): +++
Bacterial growth, Second Inoculum Days 7 (mixed inoculum; Conc. 100 (ppm ZHMT)): +++
Bacterial growth, Second Inoculum Days 14 (mixed inoculum; Conc. 100 (ppm ZHMT)): +++
Bacterial growth, Third Inoculum Days 4 (mixed inoculum; Conc. 100 (ppm ZHMT)): +++
Bacterial growth, Third Inoculum Days 7 (mixed inoculum; Conc. 100 (ppm ZHMT)): +++
Bacterial growth, Third Inoculum Days 21 (mixed inoculum; Conc. 100 (ppm ZHMT)): +++
Bacterial growth, First Inoculum Days 4 (mixed inoculum; Conc. 200 (ppm ZHMT)): −
Bacterial growth, First Inoculum Days 7 (mixed inoculum; Conc. 200 (ppm ZHMT)): −
Bacterial growth, Second Inoculum Days 4 (mixed inoculum; Conc. 200 (ppm ZHMT)): ++
Bacterial growth, Second Inoculum Days 7 (mixed inoculum; Conc. 200 (ppm ZHMT)): ++
Bacterial growth, Second Inoculum Days 14 (mixed inoculum; Conc. 200 (ppm ZHMT)): ++
Bacterial growth, Third Inoculum Days 4 (mixed inoculum; Conc. 200 (ppm ZHMT)): +++
Bacterial growth, Third Inoculum Days 7 (mixed inoculum; Conc. 200 (ppm ZHMT)): +++
Bacterial growth, Third Inoculum Days 21 (mixed inoculum; Conc. 200 (ppm ZHMT)): +++
ZHMT level at which the paint is preserved (mixed inoculum; styrene-acrylic emulsion paint): > 200 ppm
FIC ([1]; single component, relative conc. 1): 1
Viable cells after (days) 5 [2, 5]: C
Viable cells after (days) 7 [2, 5]: C
Viable cells after (days) 14 [2, 5]: C
Viable cells after (days) 5 [2, 6]: C
Viable cells after (days) 7 [2, 6]: C
activity in the presence of both zinc salts (mixed bacterial culture; latex, especially after repeated challenge): significantly enhanced
Viable bacteria, First inoculum (days) 3 (mixed bacterial culture; [7]): −
Viable bacteria, First inoculum (days) 5 (mixed bacterial culture; [7]): −
Viable bacteria, First inoculum (days) 7 (mixed bacterial culture; [7]): −
Viable bacteria, Second inoculum (days) 3 (mixed bacterial culture; [7]): C
Viable bacteria, Second inoculum (days) 5 (mixed bacterial culture; [7]): C
Viable bacteria, Second inoculum (days) 7 (mixed bacterial culture; [7]): C
Viable bacteria, Third inoculum (days) 3 (mixed bacterial culture; [7]): C
Viable bacteria, Third inoculum (days) 5 (mixed bacterial culture; [7]): C
Viable bacteria, Third inoculum (days) 7 (mixed bacterial culture; [7]): C
Viable bacteria, First inoculum (days) 3 (mixed bacterial culture; [8]): ++
Viable bacteria, First inoculum (days) 5 (mixed bacterial culture; [8]): −
Viable bacteria, First inoculum (days) 7 (mixed bacterial culture; [8]): −
Viable bacteria, Second inoculum (days) 3 (mixed bacterial culture; [8]): ++
Viable bacteria, Second inoculum (days) 5 (mixed bacterial culture; [8]): +
Viable bacteria, Second inoculum (days) 7 (mixed bacterial culture; [8]): +
Viable bacteria, Third inoculum (days) 3 (mixed bacterial culture; [8]): C
Viable bacteria, Third inoculum (days) 5 (mixed bacterial culture; [8]): C
Viable bacteria, Third inoculum (days) 7 (mixed bacterial culture; [8]): C
Viable bacteria, First inoculum (days) 3 (mixed bacterial culture; [9]): ++
Viable bacteria, First inoculum (days) 5 (mixed bacterial culture; [9]): −
Viable bacteria, First inoculum (days) 7 (mixed bacterial culture; [9]): −
Viable bacteria, Second inoculum (days) 3 (mixed bacterial culture; [9]): ++
Viable bacteria, Second inoculum (days) 5 (mixed bacterial culture; [9]): +
Viable bacteria, Second inoculum (days) 7 (mixed bacterial culture; [9]): −
Viable bacteria, Third inoculum (days) 3 (mixed bacterial culture; [9]): ++
Viable bacteria, Third inoculum (days) 5 (mixed bacterial culture; [9]): ++
Viable bacteria, Third inoculum (days) 7 (mixed bacterial culture; [9]): ++
Viable bacteria, First inoculum (days) 3 (mixed bacterial culture; [4]): +
Viable bacteria, First inoculum (days) 5 (mixed bacterial culture; [4]): −
Viable bacteria, First inoculum (days) 7 (mixed bacterial culture; [4]): −
Viable bacteria, Second inoculum (days) 3 (mixed bacterial culture; [4]): ++
Viable bacteria, Second inoculum (days) 5 (mixed bacterial culture; [4]): +
Viable bacteria, Second inoculum (days) 7 (mixed bacterial culture; [4]): −
Viable bacteria, Third inoculum (days) 3 (mixed bacterial culture; [4]): ++
Viable bacteria, Third inoculum (days) 5 (mixed bacterial culture; [4]): ++
Viable bacteria, Third inoculum (days) 7 (mixed bacterial culture; [4]): ++

Source: patent publication US6339081B1, “Composition and use” (priority 1996, dated 2002)
